Converted amounts (≈) assume the structure as drawn. No end group written: not given here.
What was measured:
[1] = target: T1, Apolipoprotein A-II (P09813) (Mus musculus, UniProt P09813); assay: Mass spectrometry of mouse plasma proteins bound to bead-immobilized peptide; format: binding; conditions: peptide on beads, 5% mouse plasma, 18 hours
T1 construct: incubated with 5% mouse plasma; from tissue; host or cells: mouse plasma (5%)
Method: (§1) Dynabeads M-370 amine (2×10^9 beads/mL, 50 μL; Thermo Fisher Scientific) were washed 3 times in sterile PBS (1 mL; GIBCO) and reacted with a bifunctional SM(PEG)4 cross-linker (5 mg/mL in DMSO) containing N-hydroxysuccinimide (NHS) ester and maleimide functional groups. A stable covalent bond between the amino group of beads and the NHS ester of the cross-linker was formed in PBS at pH 7.2 at room temperature for 24 hours with shaking at 80 rpm. The beads were then washed six times with PBS to remove nonreacted cross-linker. Next, peptide C10-KR8 (with a cysteine at the N-terminus) at 5 mg/mL was reacted with the free maleimide group in PBS for 24 hours at room temperature with shaking at 80 rpm. Another round of washing was conducted to remove the nonreacted peptides. Both the L-and D-forms of the peptide were coupled in the same manner. A portion of the beads without peptide coupling was saved as a control.
(§2) For serum binding experiments, the beads were resuspended in 500 μL of PBS; 200-μL aliquots of the coated and control dynabead were incubated with 5% mouse plasma for 18 hours at 37° C. After binding, the beads were washed six times with PBS to remove unbound proteins. Finally, the beads were suspended in 50 μL of PBS for mass spectrophotometric analysis to identify peptide-binding partners.
(§3) The samples were reduced by 10 mM dithiothreitol (DTT) and incubated for 30 minutes at 56° C. and back to room temperature. A final concentration of 50 mM iodoacetamide was added to alkylate free cysteines followed by further incubation for 20 min in the dark. Bound proteins were enzymatically digested by trypsin (4 μL of 0.5 μg/mL) overnight. A 60 […] portion was transferred to a new Eppendorf® tube and dried for 2 hours. The samples were then dissolved in 20 μL of 2% acetonitrile with 0.1% formic acid before being loaded to Q-tip columns (Pepclean, C18 spin column). Column was activated by pipetting in and out (4× times), 10 μL of 70% acetonitrile with 0.1% formic acid, and equilibrating with the same volume of 2% acetonitrile with 0.1% formic acid. Binding of the samples was done by mixing more than 10 × times, followed by washing in the same buffer (2% acetonitrile with 0.1% formic acid). The bound peptides were then eluted with 20 μL of 70% acetonitrile with 0.1% formic acid. Samples were subjected to LC-MS analysis after being suspended in the desired buffer.
(§4) Extracted peptides were resuspended in 2% acetonitrile (ACN) and 0.1% formic acid (FA) and loaded onto trap column Acclaim™ PepMap™ 100 75 μm×2 cm C18 LC Columns (Thermo Scientific) at a flow rate of 4 μL/minute. These were then separated with a Thermo RSLC UltiMate™ 3000 on a Thermo Easy-Spray PepMap™ M RSLC C18 75 μm×50 cm C-18 2 μm column (Thermo Scientific) with a step gradient of 4-25% solvent B (0.1% FA in 80% ACN) from 10 to 37 minutes and 25-45% solvent B for 37-46 minutes at 300 nL/min and 50° C. with a 70 minute total run time. Eluted peptides were analyzed by a Thermo Orbitrap Fusion™ Lumos™ Tribrid™ (Thermo Scientific) mass spectrometer in a data dependent acquisition mode. A survey full scan MS (from m/z 350-1800) was acquired in the orbitrap with a resolution of 120000. The AGC target for MS1 was set as 4×10^5 and the ion filling time set as 100 ms. The most intense ions with charge state 2-6 were isolated in 3 second cycle and fragmented using HCD fragmentation with 40% normalized collision energy and detected at a mass resolution of 30000 at 200 m/z. The AGC target for MS/MS was set as 5×10^4 and ion filling time set 60 ms dynamic exclusion was set for 30 seconds with a 10 ppm mass window. Protein identification was performed by searching MS/MS data against the Swiss-Prot mouse protein database. The search was set up for full tryptic peptides with a maximum of two missed cleavage sites. Acetylation of protein N-terminus and oxidized methionine were included as variable modifications, and carbamidomethylation of cysteine was set as fixed modification. […]

[2] = target: T2, Serum albumin (P07724) (Mus musculus, UniProt P07724); assay: as above; format: binding; conditions: peptide on beads, 5% mouse plasma, 18 hours
T2 construct: incubated with 5% mouse plasma; from tissue; host or cells: mouse plasma (5%)
T2 sequence (P07724 25-608): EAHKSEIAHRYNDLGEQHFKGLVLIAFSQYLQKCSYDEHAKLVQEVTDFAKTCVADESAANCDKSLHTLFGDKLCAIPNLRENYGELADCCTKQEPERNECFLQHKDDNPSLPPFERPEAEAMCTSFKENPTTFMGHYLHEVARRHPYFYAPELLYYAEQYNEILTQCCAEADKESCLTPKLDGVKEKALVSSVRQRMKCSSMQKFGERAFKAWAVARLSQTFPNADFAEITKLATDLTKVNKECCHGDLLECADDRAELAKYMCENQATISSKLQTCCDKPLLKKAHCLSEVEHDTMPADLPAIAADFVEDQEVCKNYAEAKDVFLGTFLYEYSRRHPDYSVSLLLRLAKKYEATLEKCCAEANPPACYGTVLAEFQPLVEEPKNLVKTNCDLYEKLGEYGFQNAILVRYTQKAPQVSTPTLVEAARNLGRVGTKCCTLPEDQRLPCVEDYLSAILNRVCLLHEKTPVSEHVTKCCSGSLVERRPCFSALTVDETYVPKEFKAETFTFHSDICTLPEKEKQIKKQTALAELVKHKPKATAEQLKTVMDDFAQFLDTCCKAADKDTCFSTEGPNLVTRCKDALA
Method: as §1, §2, §3, §4

[3] = target: T3, Apolipoprotein A-I (Q00623) (Mus musculus, UniProt Q00623); assay: as above; format: binding; conditions: peptide on beads, 5% mouse plasma, 18 hours
T3 construct: incubated with 5% mouse plasma; from tissue; host or cells: mouse plasma (5%)
T3 sequence (Q00623 19-264): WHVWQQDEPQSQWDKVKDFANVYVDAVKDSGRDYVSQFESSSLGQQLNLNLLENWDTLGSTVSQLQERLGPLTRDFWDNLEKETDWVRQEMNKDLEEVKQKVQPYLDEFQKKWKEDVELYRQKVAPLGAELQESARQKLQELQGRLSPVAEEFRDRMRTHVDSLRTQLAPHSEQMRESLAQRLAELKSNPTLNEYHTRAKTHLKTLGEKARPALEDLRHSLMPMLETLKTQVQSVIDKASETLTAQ
Method: as §1, §2, §3, §4

[4] = target: T4, Apolipoprotein C-I (P34928) (Mus musculus, UniProt P34928); assay: as above; format: binding; conditions: peptide on beads, 5% mouse plasma, 18 hours
T4 construct: incubated with 5% mouse plasma; from tissue; host or cells: mouse plasma (5%)
T4 sequence (P34928 27-88): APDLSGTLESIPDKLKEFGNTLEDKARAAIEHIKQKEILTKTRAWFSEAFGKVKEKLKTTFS
Method: as §1, §2, §3, §4

[5] = target: T5, Apolipoprotein A-IV (P06728) (Mus musculus, UniProt P06728); assay: as above; format: binding; conditions: peptide on beads, 5% mouse plasma, 18 hours
T5 construct: incubated with 5% mouse plasma; from tissue; host or cells: mouse plasma (5%)
T5 sequence (P06728 21-395): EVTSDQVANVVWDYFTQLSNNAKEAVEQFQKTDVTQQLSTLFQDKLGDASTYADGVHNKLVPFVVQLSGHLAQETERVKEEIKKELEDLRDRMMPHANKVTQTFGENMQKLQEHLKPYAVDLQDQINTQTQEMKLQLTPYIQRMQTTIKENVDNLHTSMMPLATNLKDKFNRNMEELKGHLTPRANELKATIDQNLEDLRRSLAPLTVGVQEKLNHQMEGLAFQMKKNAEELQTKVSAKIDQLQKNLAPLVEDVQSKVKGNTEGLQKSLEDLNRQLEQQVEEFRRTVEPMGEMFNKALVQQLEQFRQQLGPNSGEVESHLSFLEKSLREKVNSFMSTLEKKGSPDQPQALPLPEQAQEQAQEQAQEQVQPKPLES
Method: as §1, §2, §3, §4

[6] = target: T6, Apolipoprotein E (P08226) (Mus musculus, UniProt P08226); assay: as above; format: binding; conditions: peptide on beads, 5% mouse plasma, 18 hours
T6 construct: incubated with 5% mouse plasma; from tissue; host or cells: mouse plasma (5%)
T6 sequence (P08226 19-311): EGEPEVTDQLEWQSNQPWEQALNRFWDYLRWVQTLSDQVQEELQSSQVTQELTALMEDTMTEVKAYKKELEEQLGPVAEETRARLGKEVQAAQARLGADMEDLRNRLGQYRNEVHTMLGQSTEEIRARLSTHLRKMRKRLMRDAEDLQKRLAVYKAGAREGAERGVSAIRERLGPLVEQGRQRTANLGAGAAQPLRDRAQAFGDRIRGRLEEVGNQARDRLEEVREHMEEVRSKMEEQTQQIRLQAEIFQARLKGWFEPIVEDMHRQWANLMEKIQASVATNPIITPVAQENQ
Method: as §1, §2, §3, §4

[7] = target: T7, Apolipoprotein C-III (P33622) (Mus musculus, UniProt P33622); assay: as above; format: binding; conditions: peptide on beads, 5% mouse plasma, 18 hours
T7 construct: incubated with 5% mouse plasma; from tissue; host or cells: mouse plasma (5%)
T7 sequence (P33622 21-99): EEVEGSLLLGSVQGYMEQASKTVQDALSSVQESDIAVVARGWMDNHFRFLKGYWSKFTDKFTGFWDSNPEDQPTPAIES
Method: as §1, §2, §3, §4

[8] = system: E. coli ATCC 25922; format: cell-based
How it was run: (§5)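 Broth microdilution after CLSI M07-A10, modified: 2-fold peptide dilutions plus log-phase bacteria diluted to 0.001 OD, incubated overnight at 37° C, absorbance read at 630 nm. Medium effects probed with varied pH, NaCl or human serum in TSB (control pH 7.4), with 10%, 50%, 100% TSB, and with MHB.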

[9] = system: S. aureus USA300 LAC; format: cell-based; conditions: USA300
How it was run: as §5

[10] = system: P. aeruginosa PAO1; conditions: LL-37 value taken from Narayana, et al.; cited from earlier work
[11] = system: Klebsiella pneumonia ATCC 13883; conditions: LL-37 value taken from Narayana, et al.; cited from earlier work
[12] = system: human red blood cells (hRBCs); conditions: 50% hemolysis; LL-37 value taken from Narayana, et al.; cited from earlier work
[13] = system: E. coli ATCC 25922; conditions: LL-37 value taken from Narayana, et al.; cited from earlier work

T1 sequence (P09813 19-102): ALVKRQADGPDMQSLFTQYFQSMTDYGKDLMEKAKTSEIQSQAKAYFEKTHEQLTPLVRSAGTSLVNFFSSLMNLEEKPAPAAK

Compound	Intensity of bound Apolipoprotein A-II [1]	Intensity of bound Serum albumin [2]	Intensity of bound Apolipoprotein A-I [3]	Intensity of bound Apolipoprotein C-I [4]	Intensity of bound Apolipoprotein A-IV [5]	Intensity of bound Apolipoprotein E [6]	Intensity of bound Apolipoprotein C-III [7]	Minimal inhibitory concentration against E. coli, 10% TSB [8] [µM]	Minimal inhibitory concentration against E. coli, 50% TSB [8] [µM]	Minimal inhibitory concentration against E. coli, 100% MHB [8] [µM]	Minimal inhibitory concentration against E. coli, 100% TSB [8] [µM]	Minimal inhibitory concentration against S. aureus, 10% TSB [9] [µM]	Minimal inhibitory concentration against S. aureus, 50% TSB [9] [µM]	Minimal inhibitory concentration against S. aureus, 100% MHB [9] [µM]	Minimal inhibitory concentration against S. aureus, 100% TSB [9] [µM]	MIC (μM) PA [10] [µM]	MIC (μM) KP [11] [µM]	HC50 [12] [µM]	MIC (μM) EC [13] [µM]
C10-KR8 + linker: C10-KR8 with a cysteine, covalently attached via SM(PEG)4 cross-linker to Dynabeads M-370 amine (CKRIWQRIK; not fully specified (residue 1, N-terminus, C-terminus); also: added N-terminal Cys coupled via SM(PEG)4 to Dynabeads M-370 amine)	3.65E+05	3.72E+10	4.29E+09	4.35E+08	3.21E+08	1.68E+07	2.02E+08												
CC[C@H](C)[C@H](NC(=O)[C@H](CCCCN)NC(=O)[C@H](CCC(=O)O)NC(=O)[C@H](CCCCN)NC(=O)[C@H](CO)NC(=O)[C@H](CCCCN)NC(=O)[C@H](CCCNC(=N)N)NC(=O)[C@H](Cc1ccccc1)NC(=O)[C@H](Cc1ccccc1)NC(=O)[C@H](CC(=O)O)NC(=O)CNC(=O)[C@H](CC(C)C)NC(=O)[C@@H](N)CC(C)C)C(=O)NCC(=O)N[C@@H](CCCCN)C(=O)N[C@@H](CCC(=O)O)C(=O)N[C@@H](Cc1ccccc1)C(=O)N[C@@H](CCCCN)C(=O)N[C@@H](CCCNC(=N)N)C(=O)N[C@H](C(=O)N[C@H](C(=O)N[C@@H](CCC(N)=O)C(=O)N[C@@H](CCCNC(=N)N)C(=O)N[C@H](C(=O)N[C@@H](CCCCN)C(=O)N[C@@H](CC(=O)O)C(=O)N[C@@H](Cc1ccccc1)C(=O)N[C@@H](CC(C)C)C(=O)N[C@@H](CCCNC(=N)N)C(=O)N[C@@H](CC(N)=O)C(=O)N[C@@H](CC(C)C)C(=O)N[C@H](C(=O)N1CCC[C@H]1C(=O)N[C@@H](CCCNC(=N)N)C(=O)N[C@H](C(=O)N[C@@H](CCC(=O)O)C(=O)N[C@@H](CO)C(N)=O)[C@@H](C)O)C(C)C)[C@@H](C)CC)C(C)C)[C@@H](C)CC [LL-37, reference compound]								1.6 (≈ 7.19 µg/mL)	6.2 (≈ 27.9 µg/mL)	6.2 (≈ 27.9 µg/mL)	6.25 to 12.5	50 (≈ 225 µg/mL)	> 50	>50	> 50	>50	6.2 (≈ 27.9 µg/mL)	170	3.1 to 6.2
